# Measured values taken from US9771430B2, “Method of treating a metabolic disorder induced by obesity in a subject in need thereof by administering MK2/3 inhibitors” (THE TRUSTEES OF COLUMBIA UNIVERSITY IN THE CITY OF NEW YORK, priority 2011, dated 2017).
# Legend:
# G6pc and Pck1 mRNA = G6pc and Pck1 mRNA (RT-qPCR) in primary mouse hepatocytes; format: cell-based
# Experimental: FIG. 32A-E. Related to FIG. 26—p38. FIG. 32A Mice were fed ad libitum or fasted for 12 h. Liver phospho-p38, total p38, p-MK2, total MK-2, and β-actin were assayed by immunoblot. FIG. 32B WT HCs were serum-depleted overnight and then incubated for 5 h with 100 nm glucagon in serum-free media with or without SB202190; or glucagon was added to HCs from P38a^fl/fl mice treated with adeno-LacZ (control) or adeno-Cre. RNA was assayed for G6pc and Pck1 mRNA (*P<0.05; mean±S.E.M.). FIG. 32C HCs from fasting WT and Camk2g^−/− mice were assayed for p-p38, total p38, and β-actin. FIG. 32D WT mice were injected i.p. with 12.5 mg kg^−1 body weight of p38 inhibitor (SB202190) or vehicle control. 12 h later, the mice were injected with an additional dose of SB202190 and fasted overnight. The livers were assayed for nuclear FoxO1, nucleophosmin, p-MK2, total MK-2, and β-actin. The correlation between nuclear FoxO1 and p-MK2 band intensities is shown in the graph. FIG. 32E Adeno-GFP-FoxO1-transduced HCs were serum-depleted overnight, and then incubated for 5 h in serum-free media with SB202190 or vehicle (Veh) control. FoxO1 localization was assessed by indirect immunofluorescence (Bar, 10 μm; *P<0.05; mean±S.E.M.).
# FIGS. 53A-B. MK-2 regulates hepatic FoxO1 subcellular localization and hepatic G6Pc and Pck1. FIG. 53A. Adeno-GFP-FoxO1-transduced HCs were serum-depleted overnight, and then incubated for 30 min in serum-free media with 2 uM MK-2 inhibitor or vehicle (Veh) control. FoxO1 localization was assessed by indirect immunofluorescence (Bar, […]; *P<0.005; mean±S.E.M.). FIG. 53B WT HCs were serum-depleted overnight and then incubated for 5 h with 100 nm glucagon in serum-free media with or without MK-2 inhibitor. RNA was assayed for G6pc and Pck1 mRNA (*P<0.005; mean±S.E.M.). MK-2 Inhibitor is from Calbiochem (cat#475864): 2-(2-Quinolin-3-ylpyridin-4-yl)-1,5,6,7-tetrahydro-4H-pyrrolo-[3,2-c]pyridin-4-one.
# FIG. 69. MK-2 inhibitor suppresses forskolin-induced Pck1 and G6Pc induction in primary hepatocytes. Primary hepatocytes from WT mice were serum-depleted overnight and then pre-treated with 300 nM MK-2 inhibitor (compound 28) or vehicle for 1 h. Cells were then treated with 2 μM forskolin in serum-free media with or without the inhibitor for 4 h. RNA was assayed for G6pc and Pck1 mRNA by RT-qPCR. *, P<0.0001.
# Primary mouse HCs were isolated from 8- to 12-week-old mice as described previously (Matsumoto et al., 2002). For most experiments, the HCs were serum-depleted overnight by incubation in medium containing 0.5% fetal calf serum and were then incubated for 5 h in serum-free media, with individual treatments noted in the figure legends. HCs were transduced with adenoviral constructs 12 h after plating, and experiments were conducted 24 h after transduction. Transfections with WT, 7A- and 9A-Foxo1 were carried out using jetPEI™-hepatocyte DNA transfection reagent (Polyplus-transfection, Inc.) according to manufacturer's instructions.
# Immunoblot and RT-qPCR assays were performed as previously described (Timmins et al., 2009). Total RNA was extracted from HCs using the RNeasy kit (Qiagen). cDNA was synthesized from 2 μg total RNA using oligo (dT) and Superscript II (Invitrogen). Nuclear extraction from liver was performed using the Nuclear Extraction Kit from Panomics according to the manufacturer's instructions. […] Whether their origin is alternative splicing or post-translational modification remains to be determined.
# CaMKII [1] = format: cell-based, mouse
# Experimental: FIG. 1A. CaMKII enzyme activity was assayed in triplicate wells of primary mouse HCs stimulated with 100 nM glucagon (Gluc) or vehicle control (Veh) for the indicated times (*P<0.05 and **P<0.01 vs. Veh; mean±S.E.M.). FIGS. 1B-1J. Extracts of HCs or liver were probed for phospho-CaMKII, total CaMKII, and β-actin by immunoblot assay. FIG. 1B. HCs were incubated with […] glucagon for the indicated times; FIG. 1C. Glucagon was added to HCs that were pre-treated for 1 h with vehicle control (Veh) or 5 μM BAPTA-AM; FIG. 1D. Glucagon was added to HCs that were pre-treated with 0.5 μM xestospongin (XesC) or to HCs from Ip3r1fl/fl mice transduced with adeno-LacZ control or adeno-Cre (bar graph=Ip3r1 mRNA levels); FIG. 1E. Glucagon was added to HCs that were pre-treated for 1 h with vehicle control (Veh) or 10 μM H89. FIG. 1F. […] FIGS. 1G-1J. In vivo experiments. In FIG. 1G, mice were treated for 30 min with 200 μg kg−1 body weight of glucagon i.p., and in FIG. 1H, mice were pre-treated with 10 pmol g−1 xestospongin C or vehicle control i.p. 4 days prior to glucagon treatment. In FIGS. 1I-1J, mice were fed ad libitum or fasted for 12 h, or fasted for 12 h and then re-fed for 4 h.
# Total RNA was extracted from hepatocytes using the RNeasy kit (Qiagen). cDNA was synthesized from 2 μg total RNA using oligo (dT) and Superscript II (Invitrogen). Real-time qPCR analysis and western blotting were performed as previously described (Timmins et al., 2009). Nuclear extraction from liver was performed using the Nuclear Extraction Kit from Panomics according to the manufacturer's instructions.
# Immunoblot and RT-qPCR assays were performed as previously described (Timmins et al., 2009). Total RNA was extracted from HCs using the RNeasy kit (Qiagen). cDNA was synthesized from 2 μg total RNA using oligo (dT) and Superscript II (Invitrogen). Nuclear extraction from liver was performed using the Nuclear Extraction Kit from Panomics according to the manufacturer's instructions.
# CREB = experiment: PKA-mediated phosphorylation of CREB in hepatocytes; format: cell-based, mouse
# Experimental: (§1) Immunoblot, immunoprecipitation, and immunostaining assays were performed as described (18). CRTC2, pCREB (Ser133), CREB, pAKT (Thr308), AKT, tubulin, HA, and FLAG antibodies were previously described (18). The antibodies anti-InsP3R1 (A302-158A) and InsP3R3 (A302-160A) were purchased from Bethyl Laboratories, anti-InsP3R2 (ab77838) from Abcam, anti-Calcineurin (610260) from BD Biosciences, anti-GRP78 (ADI-SPA-826-F) from Enzo Life Sciences, anti-phospho-PKA substrate (RRXS/T, 9624), anti-phospho-AKT substrate (RXXS/T, 9614) and CRTC2 (pS171, 2892) from Cell Signaling. CRTC2 (pS275) antibody was employed as described (19).
# [2] = tested on: CRE-luciferase (luc) reporter; experiment: CRE-luciferase reporter activity in primary hepatocytes; format: cell-based, mouse; settings: response to glucagon
# Experimental: (§2) HEK293T (ATCC) cells were cultured in DMEM containing 10% FBS (HyClone), […] penicillin-streptomycin. Mouse primary hepatocytes were isolated and cultured as previously described (18). Cellular fractionation studies were conducted as previously reported (18). For reporter studies, Ad-CRE-luc infected hepatocytes (1 pfu per cell) were exposed to glucagon (Gcg, 100 nM) for 2˜4 h. For cyclosporine A (CsA, 10 μM) or okadaic acid (OA, 100 nM) or cell permeable calcineurin autoinhibitory peptide (10 μM) or CN585 (100 μM) or Calyculin A (10 nM) or Xestospongin C (Xc, 2 μM) or H89 (30 μM) or BAPTA (50 μM) inhibition, hepatocytes were pre-treated with the inhibitors for one hour. Luciferase activities were normalized to β-galactosidase activity from adenoviral-encoded RSV β-gal. Calcineurin activity (test kit from Enzo Life Sciences) and cellular cAMP levels (test kit from Cayman Chemical Company) were measured according to manufacturer's instructions.
# CRTC2 = CRTC2 dephosphorylation and nuclear translocation in primary hepatocytes; format: cell-based, mouse; settings: inhibitor pre-treatment 1 h, glucagon 100 nM
# Experimental: as §2, §1
# calcineurin = experiment: Calcineurin activity in primary hepatocytes; format: cell-based, mouse; settings: cells expressing wild-type InsP3R1
# Experimental: as §2
# [3] = tested on: InsP3R1, InsP3R2 and InsP3R3; experiment: InsP3R phosphorylation in hepatocytes (phospho-substrate antiserum immunoblot); format: cell-based, mouse; settings: phospho-AKT substrate antiserum
# cytosolic free calcium = experiment: Calcium mobilization in primary hepatocytes (Fura-2 imaging); format: cell-based, mouse; settings: cells expressing wild-type InsP3R1
# Experimental: Mouse primary hepatocytes were plated on glass coverslips and loaded with 5 μM Fura-2 acetoxymethyl ester (Molecular Probes) in the presence of 0.025% (w/v) pluronic F127 (Sigma-Aldrich) in Media 199 (Mediatech) for 30 minutes. […] The ratio of fluorescence intensity at the two excitation wavelengths was calculated after subtracting background fluorescence. [Ca2+]I (cytosolic free calcium concentration) was calculated using a Fura-2 calcium imaging calibration kit (Invitrogen). Images were collected and analyzed using the MetaFluor software package (Universal Imaging Corp.). Graphs represent average responses from groups of 30-40 individual cells from representative single experiments. Bar graphs represent average responses (fold over average baseline) from 150-200 cells per condition. All experiments were repeated at least three times with similar results.
# FoxO1 [4] = experiment: Nuclear FoxO1 in mouse liver (immunoblot of nuclear extracts); format: in vivo; settings: fasting mice, 12.5 mg kg−1 i.p., two doses
# Experimental: FIGS. 24A-D. CaMKII regulates hepatic FoxO1 subcellular localization. FIG. 24A HCs from WT and Camk2g^−/− mice were transduced with an adenovirus expressing murine GFP-FoxO1 at an MOI of 2. Cells were serum-depleted overnight and then incubated for 5 h in serum-free media. FoxO1 subcellular localization was assessed by indirect immunofluorescence. Bar, 10 μm. Data are quantified in the right panel. (^#P<0.0005; mean±S.E.M.). […] Bar, 5 μm. FIG. 24C HCs were transduced with adeno-LacZ or CA-CaMKII and then adeno-GFP-FoxO1 as in FIG. 24B. After incubation in serum-depleted medium o.n. and then serum-free medium for 5 h, the cells were treated with 100 nM insulin for the indicated times. FoxO1 subcellular localization was quantified as in FIG. 24B (*P<0.005 vs. LacZ in each group; mean±S.E.M.).
# FIG. 32A-E. Related to FIG. 26—p38. FIG. 32A Mice were fed ad libitum or fasted for 12 h. Liver phospho-p38, total p38, p-MK2, total MK-2, and β-actin were assayed by immunoblot. […] FoxO1 localization was assessed by indirect immunofluorescence (Bar, 10 μm; *P<0.05; mean±S.E.M.).
# Immunoblot and RT-qPCR assays were performed as previously described (Timmins et al., 2009). […] Whether their origin is alternative splicing or post-translational modification remains to be determined.
# FoxO1 [5] = experiment: FoxO1 subcellular localization in primary mouse hepatocytes; format: cell-based; settings: HCs treated with glucagon
# Experimental: FIG. 24A HCs from WT and Camk2g^−/− mice were transduced with an adenovirus expressing murine GFP-FoxO1 at an MOI of 2. Cells were serum-depleted overnight and then incubated for 5 h in serum-free media. FoxO1 subcellular localization was assessed by indirect immunofluorescence. Bar, 10 μm. Data are quantified in the right panel. (^#P<0.0005; mean±S.E.M.). FIG. 24B HCs were transduced with adenoviral vectors expressing LacZ, CA-CaMKII, or KD-CaMKII at an MOI of 20 and then transduced 4 h later with adeno-GFP-FoxO1, followed by fluorescence microscopy and quantification as in FIG. 24A (^#P<0.005 vs. LacZ; mean±S.E.M.). Bar, 5 μm. FIG. 24C HCs were transduced with adeno-LacZ or CA-CaMKII and then adeno-GFP-FoxO1 as in FIG. 24B. After incubation in serum-depleted medium o.n. and then serum-free medium for 5 h, the cells were treated with 100 nM insulin for the indicated times. FoxO1 subcellular localization was quantified as in FIG. 24B (*P<0.005 vs. LacZ in each group; mean±S.E.M.).
# Primary hepatocytes from WT mice were transduced with adeno-LacZ (LacZ) or adeno-DN-MK2 (DN-MK2) at an MOI of 1. […]
# CaMKII [6] = settings: WT Mφs, 4 h, 5 μM
# Experimental: Immunoblots of pThr287-CaMKII in FIG. 15A WT, Insr−/−, and ob/obMφs±FC loading or oxLDL and FIG. 15B WT Mφs±4 h treatment with 5 μM U0126 ERK inhibitor.
# JNK = settings: at 100 μM; cited from earlier work
# p42 MAP kinase = p42 MAP kinase (Homo sapiens, UniProt P28482); settings: at 100 μM; cited from earlier work
# Chain of p42 MAP kinase (P28482 whole entry): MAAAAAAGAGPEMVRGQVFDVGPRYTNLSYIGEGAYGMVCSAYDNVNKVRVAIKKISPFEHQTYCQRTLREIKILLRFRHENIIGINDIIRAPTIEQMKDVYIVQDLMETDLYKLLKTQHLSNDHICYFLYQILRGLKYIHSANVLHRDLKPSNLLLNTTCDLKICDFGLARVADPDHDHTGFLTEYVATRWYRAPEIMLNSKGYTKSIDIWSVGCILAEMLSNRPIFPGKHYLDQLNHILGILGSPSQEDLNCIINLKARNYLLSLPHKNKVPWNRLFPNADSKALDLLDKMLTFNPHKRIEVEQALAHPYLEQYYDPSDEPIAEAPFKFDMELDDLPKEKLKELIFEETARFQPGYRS
compound,measurement,setting,value
C=C[C@@]1(C)CC(=O)[C@]2(O)[C@@]3(C)[C@@H](O)CCC(C)(C)[C@@H]3[C@H](O)[C@H](OC(C)=O)[C@@]2(C)O1 [forskolin],"G6pc mRNA, untreated WT HCs lower than forskolin-treated WT HCs",G6pc and Pck1 mRNA; forskolin 10 μM,~165 fold
same,"Pck1 mRNA, untreated WT HCs lower than forskolin-treated WT HCs",G6pc and Pck1 mRNA; forskolin 10 μM,~2500 fold
C1CNC1 [azetidine],p-CaMKIIγ in HCs,CaMKII [1]; ER stress activation,increased
"CC(=O)OCOC(=O)CN(CC(=O)OCOC(C)=O)c1ccccc1OCCOc1ccccc1N(CC(=O)OCOC(C)=O)CC(=O)OCOC(C)=O [BAPTA-AM, 1,2-bis[2-aminophenoxy]ethane-N,N,N′,N′-tetraacetic acid tetrakis[acetoxymethyl ester]]",PKA-mediated phosphorylation of CREB in response to glucagon,CREB,did not block
same,CRE-luciferase (luc) reporter activity / activation,[2],disrupted
same,glucagon-induced dephosphorylation (and nuclear translocation) of CRTC2,CRTC2,disrupted
same,glucagon-induced CaMKII phosphorylation,"CaMKII [1]; HCs pre-treated with inhibitor, then glucagon",markedly decreased
insulin: hormone,glucagon-dependent increases in calcineurin activation,calcineurin,reduced
same,InsP3R phosphorylation,[3],increased
same,glucagon-dependent increases in calcium mobilization,cytosolic free calcium,reduced
C=C1[C@@H](O)[C@@H]2O[C@]3(CC[C@H](/C=C/[C@@H](C)[C@@H]4CC(C)=C[C@@]5(O[C@H](C[C@@](C)(O)C(=O)O)CC[C@H]5O)O4)O3)CC[C@H]2O[C@@H]1[C@@H](O)C[C@H](C)[C@H]1O[C@@]2(CCCCO2)CC[C@H]1C [okadaic acid],glucagon-induced dephosphorylation (and nuclear translocation) of CRTC2,CRTC2,did not
"O=C1NCCc2[nH]c(-c3ccnc(-c4cnc5ccccc5c4)c3)cc21 [MK2 inhibitor, 2-(2-Quinolin-3-ylpyridin-4-yl)-1,5,6,7-tetrahydro-4H-pyrrolo-[3,2-c]pyridin-4-one]",nuclear FoxO1 and induction of genes involved in hepatic glucose production,"G6pc and Pck1 mRNA; 2 uM MK-2 inhibitor, glucagon 100 nm 5 h (FIG. 53)",importance of MK2 in both nuclear FoxO1 and in induction of genes
Oc1ccc(-c2nc(-c3ccncc3)c(-c3ccc(F)cc3)[nH]2)cc1 [SB202190],nuclear FoxO1 in liver as a function of p38 inhibition (p-MK2),FoxO1 [4],clear decrease
same,nuclear GFP-FoxO1,FoxO1 [5],decreased
same,expression of G6pc and Pck1,G6pc and Pck1 mRNA; glucagon-stimulated HC,blocked
N#CC(=C(/N)Sc1ccccc1N)/C(C#N)=C(\N)Sc1ccccc1N [U0126],p-CaMKII,CaMKII [6],increase
C[S+]([O-])c1ccc(-c2nc(-c3ccncc3)c(-c3ccc(F)cc3)[nH]2)cc1 (stereo not drawn) [SB203580],inhibition of JNK,JNK,does not significantly inhibit
same,inhibition of p42 MAP kinase,p42 MAP kinase,does not significantly inhibit
